Data: the supplement of paper PMC10307832

Assays:
Experiment in all cases: relative viability (nuclei count vs DMSO), 5 days (fraction); higher = more cells survive
[1] = compound: CCN1CCC(CC1)N2C=C(N=N2)CNC3=CC4=C(C(=CN=C4C(=C3)Cl)C#N)NC5=CC(=C(C=C5)F)Cl [KIN001-266] + CCNC(=O)c1noc(-c2cc(C(C)C)c(O)cc2O)c1-c1ccc(CN2CCOCC2)cc1 [Luminespib] (partner 0.01 µM)
Outline: (§1)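 Values are medians from duplicate plates. Each reflects relative viability, defined as the nuclei count of treated wells over that of vehicle wells. Lung cancer cell lines in 1536-well plates were pin-tool dosed one day after seeding with one drug alone or with a fixed anchor-drug dose plus five library-drug doses (not always all listed) in √10 steps, then fixed, stained and imaged at 4× after 5 days.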

[2] = compound: CCN1CCC(CC1)N2C=C(N=N2)CNC3=CC4=C(C(=CN=C4C(=C3)Cl)C#N)NC5=CC(=C(C=C5)F)Cl [KIN001-266] + COc1cccc2cc(-c3nc([C@H]4CC[C@H](C(=O)O)CC4)n4ncnc(N)c34)[nH]c12 [OSI-027] (partner 0.5 µM)
Outline: as §1

[3] = compound: CCN1CCC(CC1)N2C=C(N=N2)CNC3=CC4=C(C(=CN=C4C(=C3)Cl)C#N)NC5=CC(=C(C=C5)F)Cl [KIN001-266] + CS(=O)(=O)CCNCc1ccc(-c2ccc3ncnc(Nc4ccc(OCc5cccc(F)c5)c(Cl)c4)c3c2)o1 [Lapatinib] (partner 2 µM)
Outline: as §1

[4] = compound: CCN1CCC(CC1)N2C=C(N=N2)CNC3=CC4=C(C(=CN=C4C(=C3)Cl)C#N)NC5=CC(=C(C=C5)F)Cl [KIN001-266] + C[C@]1(O)C[C@@H](c2nc(-c3ccc4ccc(-c5ccccc5)nc4c3)c3c(N)nccn32)C1 [Linsitinib] (partner 1 µM)
Outline: as §1

Cell Line | relative viability ([1]; first compound 0.08 µM) | relative viability ([1]; first compound 0.253 µM) | relative viability ([1]; first compound 0.8 µM) | relative viability ([1]; first compound 2.53 µM) | relative viability ([1]; first compound 8 µM) | relative viability ([2]; first compound 0.08 µM) | relative viability ([2]; first compound 0.253 µM) | relative viability ([2]; first compound 0.8 µM) | relative viability ([2]; first compound 2.53 µM) | relative viability ([2]; first compound 8 µM) | relative viability ([3]; first compound 0.08 µM) | relative viability ([3]; first compound 0.253 µM) | relative viability ([3]; first compound 0.8 µM) | relative viability ([3]; first compound 2.53 µM) | relative viability ([3]; first compound 8 µM) | relative viability ([4]; first compound 0.08 µM) | relative viability ([4]; first compound 0.253 µM) | relative viability ([4]; first compound 0.8 µM) | relative viability ([4]; first compound 2.53 µM) | relative viability ([4]; first compound 8 µM)
NCI-H1993 | 0.872 | 1.02 | 0.705 | 0.736 | 0.533 | 0.562 | 0.537 | 0.607 | 0.582 | 0.63 | 0.896 | 0.775 | 0.841 | 0.793 | 0.746 | 0.714 | 0.657 | 0.828 | 0.687 | 0.797
NCI-H838 | 0.27 | 0.284 | 0.328 | 0.2 | 0.186 | 0.36 | 0.435 | 0.423 | 0.361 | 0.343 | 0.988 | 0.989 | 1.13 | 1.06 | 0.866 | 0.979 | 1.04 | 1.01 | 0.936 | 0.59
NCI-H1437 | 1.08 | 1.13 | 1.1 | 1.09 | 0.854 | 0.938 | 0.91 | 0.862 | 0.85 | 0.56 | 0.781 | 0.819 | 0.746 | 0.798 | 0.483 | 1.07 | 1 | 1.03 | 1.03 | 0.583
SK-LU-1 | 0.206 | 0.215 | 0.223 | 0.22 | 0.189 | 0.358 | 0.307 | 0.403 | 0.346 | 0.26 | 0.932 | 0.862 | 0.817 | 0.64 | 0.613 | 1.29 | 0.937 | 1.14 | 1.07 | 0.639
BEN | 0.559 | 0.651 | 0.861 | 0.288 | 0.458 | 0.296 | 0.335 | 0.305 | 0.274 | 0.283 | 0.779 | 0.764 | 0.77 | 0.835 | 0.953 | 0.892 | 0.919 | 0.914 | 1.04 | 0.978
LC-2-ad | 0.943 | 1.19 | 1.13 | 1.06 | 0.931 | 0.844 | 0.94 | 0.825 | 0.776 | 0.77 | 0.999 | 0.847 | 1.02 | 0.972 | 0.929 | 0.879 | 0.842 | 0.924 | 0.808 | 0.873
COR-L23 | 0.638 | 0.636 | 0.694 | 0.621 | 0.423 | 0.851 | 0.788 | 0.895 | 0.657 | 0.582 | 0.797 | 0.894 | 0.998 | 0.904 | 0.983 | 0.958 | 0.918 | 0.928 | 0.88 | 0.601
RERF-LC-KJ | 1.31 | 1.23 | 1.14 | 1.16 | 0.739 | 0.645 | 0.614 | 0.519 | 0.498 | 0.351 | 0.871 | 0.828 | 0.817 | 0.857 | 0.781 | 0.947 | 0.857 | 0.917 | 0.846 | 0.656
NCI-H1915 | 0.827 | 0.684 | 0.791 | 0.79 | 0.783 | 0.703 | 0.635 | 0.629 | 0.661 | 0.49 | 0.959 | 0.974 | 1.02 | 1.02 | 0.993 | 1.1 | 1.1 | 1.1 | 1.06 | 0.998
NCI-H596 | 0.922 | 1.03 | 1.08 | 1.03 | 0.905 | 0.858 | 0.635 | 0.616 | 0.638 | 0.529 | 1.09 | 1.07 | 1.17 | 1.06 | 1.01 | 1.08 | 1.14 | 1.06 | 1.07 | 0.812
NCI-H2009 | 1.04 | 0.969 | 1.05 | 0.983 | 0.881 | 0.711 | 0.686 | 0.744 | 0.493 | 0.41 | 0.981 | 1.07 | 0.905 | 0.927 | 0.645 | 1.23 | 1.12 | 1.2 | 1.16 | 1.05
NCI-H2126 | 0.868 | 0.871 | 0.906 | 0.865 | 0.978 | 0.712 | 0.754 | 0.696 | 0.635 | 0.618 | 0.796 | 0.757 | 0.765 | 0.676 | 0.734 | 0.72 | 0.724 | 0.739 | 0.73 | 0.73
LXF-289 | 0.633 | 0.72 | 0.72 | 0.705 | 0.794 | 0.788 | 0.843 | 0.775 | 0.788 | 0.678 | 0.901 | 0.898 | 0.862 | 0.865 | 0.96 | 0.931 | 0.945 | 0.878 | 0.968 | 0.935
NCI-H1563 | 0.496 | 0.498 | 0.534 | 0.602 | 0.524 | 0.794 | 0.745 | 0.875 | 0.758 | 0.756 | 1.05 | 1.1 | 0.968 | 0.922 | 0.835 | 1.16 | 1.22 | 1.25 | 1.16 | 1.1
HCC-44 | 1.02 | 1.04 | 1.1 | 1.01 | 1.19 | 0.5 | 0.664 | 0.605 | 0.441 | 0.593 | 0.964 | 1.03 | 0.959 | 0.985 | 1.02 | 0.669 | 0.678 | 0.687 | 0.742 | 0.622
